The values below come from patent publication US9707233B2, “Heterocyclylamines as PI3K inhibitors” (Incyte Corporation, priority 2011, dated 2017).

Some results are limits rather than exact numbers.

PI3Kδ (p110δ/p85α), sequence (O00329 whole entry): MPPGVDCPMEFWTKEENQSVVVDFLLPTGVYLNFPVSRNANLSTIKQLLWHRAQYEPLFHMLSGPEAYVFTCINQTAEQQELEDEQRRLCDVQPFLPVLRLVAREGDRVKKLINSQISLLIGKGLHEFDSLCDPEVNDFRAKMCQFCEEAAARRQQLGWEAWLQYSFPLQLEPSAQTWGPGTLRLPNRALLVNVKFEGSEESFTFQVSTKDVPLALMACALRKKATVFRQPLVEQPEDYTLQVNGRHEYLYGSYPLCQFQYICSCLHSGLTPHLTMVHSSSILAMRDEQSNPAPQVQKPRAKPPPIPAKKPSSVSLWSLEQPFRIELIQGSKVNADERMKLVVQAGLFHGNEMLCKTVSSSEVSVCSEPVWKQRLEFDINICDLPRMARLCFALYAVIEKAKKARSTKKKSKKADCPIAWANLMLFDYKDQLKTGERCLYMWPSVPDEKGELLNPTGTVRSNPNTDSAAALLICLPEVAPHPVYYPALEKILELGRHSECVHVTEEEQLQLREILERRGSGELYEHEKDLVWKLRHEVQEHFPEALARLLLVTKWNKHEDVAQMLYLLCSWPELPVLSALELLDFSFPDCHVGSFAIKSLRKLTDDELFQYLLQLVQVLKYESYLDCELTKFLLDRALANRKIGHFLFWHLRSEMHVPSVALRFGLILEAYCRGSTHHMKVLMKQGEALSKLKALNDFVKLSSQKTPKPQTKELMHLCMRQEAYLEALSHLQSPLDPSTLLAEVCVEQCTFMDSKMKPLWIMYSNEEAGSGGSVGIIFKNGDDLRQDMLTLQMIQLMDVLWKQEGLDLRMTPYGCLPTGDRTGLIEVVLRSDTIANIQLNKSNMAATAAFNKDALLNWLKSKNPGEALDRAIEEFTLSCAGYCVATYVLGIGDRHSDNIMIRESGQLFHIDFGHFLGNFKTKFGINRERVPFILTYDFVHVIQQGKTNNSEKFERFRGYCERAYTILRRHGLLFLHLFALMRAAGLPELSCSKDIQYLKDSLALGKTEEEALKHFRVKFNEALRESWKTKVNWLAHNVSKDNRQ
PI3Kδ (p110δ/p85α), sequence (P27986 whole entry partner): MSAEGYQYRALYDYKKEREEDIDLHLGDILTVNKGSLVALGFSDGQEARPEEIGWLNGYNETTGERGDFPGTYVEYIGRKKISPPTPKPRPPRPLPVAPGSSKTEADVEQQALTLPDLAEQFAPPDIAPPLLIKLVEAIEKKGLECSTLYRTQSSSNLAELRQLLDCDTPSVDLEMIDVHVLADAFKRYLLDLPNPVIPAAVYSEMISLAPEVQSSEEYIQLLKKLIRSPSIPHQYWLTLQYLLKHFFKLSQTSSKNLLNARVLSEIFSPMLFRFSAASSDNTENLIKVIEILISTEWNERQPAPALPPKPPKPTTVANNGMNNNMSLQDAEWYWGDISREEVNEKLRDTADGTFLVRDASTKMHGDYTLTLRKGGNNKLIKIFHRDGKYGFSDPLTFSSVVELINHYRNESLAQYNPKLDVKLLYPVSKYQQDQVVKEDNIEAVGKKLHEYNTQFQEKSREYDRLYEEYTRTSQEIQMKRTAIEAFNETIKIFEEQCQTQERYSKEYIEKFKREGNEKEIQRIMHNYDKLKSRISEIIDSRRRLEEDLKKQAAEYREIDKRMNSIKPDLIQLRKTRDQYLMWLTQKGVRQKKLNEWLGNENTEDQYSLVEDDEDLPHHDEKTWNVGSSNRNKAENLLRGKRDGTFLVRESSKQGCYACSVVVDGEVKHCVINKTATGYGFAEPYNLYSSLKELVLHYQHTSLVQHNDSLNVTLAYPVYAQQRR

In the assay the target is PI3Kδ (p110δ/p85α) (Homo sapiens (Human), UniProt O00329). Nature of the assay: PI3Kδ scintillation proximity assay (Example A3). The format is biochemical. The note with it: 20 μM ATP, 20 μM PIP2, 4 nM PI3Kδ; read-out: PI3Kδ SPA IC50. How it is done:
[γ-^33P]ATP (10 mCi/mL) was purchased from Perkin-Elmer (Waltham, Mass.). […] PI3Kδ (p110δ/p85α) was purchased from Millipore (Bedford, Mass.). ATP, MgCl2, DTT, EDTA, MOPS and CHAPS were purchased from Sigma-Aldrich (St. Louis, Mo.). Wheat Germ Agglutinin (WGA) YSi SPA Scintillation Beads was purchased from GE healthcare life sciences (Piscataway, N.J.).
The kinase reaction was conducted in polystyrene 384-well matrix white plate from Thermo Fisher Scientific in a final volume of 25 μL. Inhibitors were first diluted serially in DMSO and added to the plate wells before the addition of other reaction components. The final concentration of DMSO in the assay was 0.5%. The PI3K assays were carried out at room temperature in 20 mM MOPS, pH 6.7, 10 mM MgCl2, 5 mM DTT and CHAPS 0.03%. Reactions were initiated by the addition of ATP, the final reaction mixture consisted of 20 μM PIP2, 20 μM ATP, 0.2 μCi [γ-^33P]ATP, 4 nM PI3Kδ. […] 25 mM EDTA, 400 μM ATP. The final concentration of SPA beads was 1.0 mg/mL. After the plate sealing, plates were shaken overnight at room temperature and centrifuged at 1800 rpm for 10 minutes, the radioactivity of the product was determined by scintillation counting on Topcount (Perkin-Elmer). IC50 determination was performed by fitting the curve of percent control activity versus the log of the inhibitor concentration using the GraphPad Prism 3.0 software.
For orientation: Scintillation proximity formats need no separation of bound from free tracer.
For “2-(4-(3-(1-(4-Amino-3-methyl-1H-pyrazolo[3,4-d]pyrimidin-1-yl)ethyl)-5-chloro-2-ethoxy-6-methylphenyl)-1H-pyrazol-1-yl) acetamide [Example 203]”, the IC50 was no more than 10 nM.
`COc1c(C(C)n2nc(C)c3c(N)ncnc32)cc(Cl)c(C)c1C1CN(CC2CC2)C1` (racemic) [Example 4, 1-(1-{5-Chloro-3-[1-(cyclopropylmethyl)azetidin-3-yl]-2-methoxy-4-methylphenyl}ethyl)-3-methyl-1H-pyrazolo[3,4-d]pyrimidin-4-amine bis(trifluoroacetate)]: the IC50 is no more than 10 nM.
Take `COc1c(C(C)n2nc(C)c3c(N)ncnc32)cc(Cl)c(C)c1-c1ccnc(C(=O)N(C)CCO)c1` (racemic) [Example 19, 4-{3-[1-(4-amino-3-methyl-1H-pyrazolo[3,4-d]pyrimidin-1-yl)ethyl]-5-chloro-2-methoxy-6-methylphenyl}-N-(2-hydroxyethyl)-N-methylpyridine-2-carboxamide]: the IC50 is no more than 10 nM.
With `COc1c(C(C)n2ccc(=O)c3c(N)ncnc32)cc(Cl)c(C)c1-c1cncc(S(C)(=O)=O)c1` (racemic) [Example 26, 4-Amino-8-(1-{5-chloro-2-methoxy-4-methyl-3-[5-(methylsulfonyl)pyridin-3-yl]phenyl}ethyl)pyrido[2,3-d]pyrimidin-5(8H)-one bis(trifluoroacetate)] the figure was no more than 10 nM; with `COc1c(C(C)n2ccc(=O)c3c(N)ncnc32)cc(Cl)c(C)c1-c1cncc(C#N)c1` (racemic) [Example 27, 5-{3-[1-(4-Amino-5-oxopyrido[2,3-d]pyrimidin-8(5H)-yl)ethyl]-5-chloro-2-methoxy-6-methylphenyl}nicotinonitrile bis(trifluoroacetate)], no more than 10 nM.
With `COc1c(C(C)n2ccc(=O)c3c(N)ncnc32)cc(Cl)c(C)c1-c1cncnc1` (racemic) [Example 29, 4-Amino-8-[1-(5-chloro-2-methoxy-4-methyl-3-pyrimidin-5-ylphenyl)ethyl]pyrido[2,3-d]pyrimidin-5(8H)-one bis(trifluoroacetate)] the figure was no more than 10 nM.
With `COc1c(C(C)n2ccc(=O)c3c(N)ncnc32)cc(Cl)c(C)c1-c1cccc(C(=O)N(C)C)c1` (racemic) [Example 30, 3′-[1-(4-Amino-5-oxopyrido[2,3-d]pyrimidin-8(5H)-yl)ethyl]-5′-chloro-2′-methoxy-N,N,6′-trimethylbiphenyl-3-carboxamide bis(trifluoroacetate)] the figure was no more than 10 nM; with `COc1c(C(C)n2ccc(=O)c3c(N)ncnc32)cc(Cl)c(C)c1-c1cncc(F)c1` (racemic) [Example 31, 4-Amino-8-{1-[5-chloro-3-(5-fluoropyridin-3-yl)-2-methoxy-4-methylphenyl]ethyl}pyrido[2,3-d]pyrimidin-5(8H)-one bis(trifluoroacetate)], no more than 10 nM.
On to `COc1c(C(C)n2ccc(=O)c3c(N)ncnc32)cc(Cl)c(C)c1-c1cccc(S(=O)(=O)N(C)C)c1` (racemic) [Example 32, 3′-[1-(4-Amino-5-oxopyrido[2,3-d]pyrimidin-8(5H)-yl)ethyl]-5′-chloro-2′-methoxy-N,N,6′-trimethylbiphenyl-3-sulfonamide bis(trifluoroacetate)], for which the IC50 is no more than 10 nM.
`CNC(=O)c1ccc(-c2c(C)c(Cl)cc(C(C)n3ccc(=O)c4c(N)ncnc43)c2OC)cn1` (racemic) [Example 33, 5-{3-[1-(4-amino-5-oxopyrido[2,3-d]pyrimidin-8(5H)-yl)ethyl]-5-chloro-2-methoxy-6-methylphenyl}-N-methylpyridine-2-carboxamide bis(trifluoroacetate)]: the IC50 was no more than 10 nM.
As for `CCOc1c(C(C)n2ccc(=O)c3c(N)ncnc32)cc(Cl)c(C)c1C1CN(C(C)C)C1` (racemic) [Example 35, 4-Amino-8-{1-[5-chloro-2-ethoxy-3-(1-isopropylazetidin-3-yl)-4-methylphenyl]ethyl}pyrido[2,3-d]pyrimidin-5(8H)-one bis(trifluoroacetate)], the figure is no more than 10 nM; as for `COc1c(C(C)n2ncc3c(N)ncnc32)cc(Cl)c(C)c1-c1ccnc(C(=O)N(C)C)c1` (racemic) [Example 38, 4-{3-[1-(4-amino-1H-pyrazolo[3,4-d]pyrimidin-1-yl)ethyl]-5-chloro-2-methoxy-6-methylphenyl}-N,N-dimethylpyridine-2-carboxamide], 10 to 50 nM.
Turning to `COc1c(C(C)n2ncc3c(N)ncnc32)cc(Cl)c(C)c1-c1ccnc(C(=O)NCCO)c1` (racemic) [Example 39, 4-{3-[1-(4-amino-1H-pyrazolo[3,4-d]pyrimidin-1-yl)ethyl]-5-chloro-2-methoxy-6-methylphenyl}-N-(2-hydroxyethyl)pyridine-2-carboxamide], the IC50 lay within 50 to 200 nM.
On to `COc1c(C(C)n2nc(C)c3c(N)ncnc32)cc(C#N)c(C)c1-c1ccnc(C(=O)N(C)CCO)c1` (racemic) [Example 40, 4-{3-[1-(4-amino-3-methyl-1H-pyrazolo[3,4-d]pyrimidin-1-yl)ethyl]-5-cyano-2-methoxy-6-methylphenyl}-N-(2-hydroxyethyl)-N-methylpyridine-2-carboxamide], for which the IC50 lay within 10 to 50 nM.
With `COc1c(C(C)n2nc(C)c3c(N)nccc32)cc(Cl)c(C)c1-c1ccc(C(=O)N(C)C)nc1` (racemic) [Example 41, 5-{3-[1-(4-Amino-3-methyl-1H-pyrazolo[4,3-c]pyridin-1-yl)ethyl]-5-chloro-2-methoxy-6-methylphenyl}-N,N-dimethylpyridine-2-carboxamide bis(trifluoroacetate)] the figure was 50 to 200 nM; with `CCOc1c(C(C)n2nc(-c3cccc(F)c3)c3c(N)ncnc32)cc(Cl)c(C)c1-c1ccc(C(=O)N(C)C)nc1` (racemic) [Example 47, 5-(3-{1-[4-amino-3-(3-fluorophenyl)-1H-pyrazolo[3,4-d]pyrimidin-1-yl]ethyl}-5-chloro-2-ethoxy-6-methylphenyl)-N,N-dimethylpyridine-2-carboxamide bis(trifluoroacetate)], no more than 10 nM.
As for `CCOc1c(C(C)n2nc(-c3cn[nH]c3)c3c(N)ncnc32)cc(Cl)c(C)c1-c1ccc(C(=O)N(C)C)nc1` (racemic) [Example 48, 5-(3-{1-[4-amino-3-(1H-pyrazol-4-yl)-1H-pyrazolo[3,4-d]pyrimidin-1-yl]ethyl}-5-chloro-2-ethoxy-6-methylphenyl)-N,N-dimethylpyridine-2-carboxamide bis(trifluoroacetate)], the figure is no more than 10 nM.
Consider `CCOc1c(C(C)n2nc(-c3cnn(C)c3)c3c(N)ncnc32)cc(Cl)c(C)c1-c1ccc(C(=O)N(C)C)nc1` (racemic) [Example 49, 5-(3-{1-[4-amino-3-(1-methyl-1H-pyrazol-4-yl)-1H-pyrazolo[3,4-d]pyrimidin-1-yl]ethyl}-5-chloro-2-ethoxy-6-methylphenyl)-N,N-dimethylpyridine-2-carboxamide bis(trifluoroacetate)], for which the IC50 is no more than 10 nM.
In the case of `CCOc1c(C(C)n2nc(-c3cc[nH]n3)c3c(N)ncnc32)cc(Cl)c(C)c1-c1ccc(C(=O)N(C)C)nc1` (racemic) [Example 51, 5-(3-{1-[4-amino-3-(1H-pyrazol-3-yl)-1H-pyrazolo[3,4-d]pyrimidin-1-yl]ethyl}-5-chloro-2-ethoxy-6-methylphenyl)-N,N-dimethylpyridine-2-carboxamide bis(trifluoroacetate)], the IC50 is no more than 10 nM.
As for `CCOc1c(C(C)n2nc(C3CC3)c3c(N)ncnc32)cc(Cl)c(C)c1-c1ccc(C(=O)N(C)C)nc1` (racemic) [Example 53, 5-{3-[1-(4-amino-3-cyclopropyl-1H-pyrazolo[3,4-d]pyrimidin-1-yl)ethyl]-5-chloro-2-ethoxy-6-methylphenyl}-N,N-dimethylpyridine-2-carboxamide bis(trifluoroacetate)], the IC50 is no more than 10 nM.
With `CCOc1c(C(C)n2nc(C#N)c3c(N)ncnc32)cc(Cl)c(C)c1-c1ccc(C(=O)N(C)C)nc1` (racemic) [Example 54, 5-{3-[1-(4-amino-3-cyano-1H-pyrazolo[3,4-d]pyrimidin-1-yl)ethyl]-5-chloro-2-ethoxy-6-methylphenyl}-N,N-dimethylpyridine-2-carboxamide] the figure was 10 to 50 nM.
With `CCOc1c(C(C)n2nc(-c3ccc(F)cc3)c3c(N)ncnc32)cc(Cl)c(C)c1-c1ccc(C(=O)N(C)C)nc1` (racemic) [Example 55, 5-(3-{1-[4-amino-3-(4-fluorophenyl)-1H-pyrazolo[3,4-d]pyrimidin-1-yl]ethyl}-5-chloro-2-ethoxy-6-methylphenyl)-N,N-dimethylpyridine-2-carboxamide bis(trifluoroacetate)] the figure was 10 to 50 nM.
As for `CCOc1c(C(C)n2nc(-c3ccc(C(=O)N(C)C)nc3)c3c(N)ncnc32)cc(Cl)c(C)c1-c1ccc(C(=O)N(C)C)nc1` (racemic) [Example 56, 5-{4-amino-1-[1-(5-chloro-3-{6-[(dimethylamino)carbonyl]pyridin-3-yl}-2-ethoxy-4-methylphenyl)ethyl]-1H-pyrazolo[3,4-d]pyrimidin-3-yl}-N,N-dimethylpyridine-2-carboxamide tris(trifluoroacetate)], the figure is 10 to 50 nM.

As usually defined, the IC50 is the point on the concentration scale where inhibition reaches its midpoint.
